Laboratory results taken from ChEMBL document CHEMBL4610025, “Discovery of a follistatin-derived myostatin inhibitory peptide” (Bioorg Med Chem Lett, 2020).
Activity calls are given as the source filed them. The rule behind the calls is not given here. Non-standard residues stand in square brackets, D forms with d. Residues, ends and D or L forms follow the SMILES beside them. Chg = N[C@H](C(=O)O)C1CCCCC1

What was measured:
[1] = target: T1, Growth/differentiation factor 8 (Homo sapiens, UniProt O14793); assay: (§1) Inhibition of myostatin (unknown origin) expressed in HEK293 cells incubated for 4 hrs by dual luciferase reporter gene assay; format: cell-based
T1 sequence (O14793 whole entry): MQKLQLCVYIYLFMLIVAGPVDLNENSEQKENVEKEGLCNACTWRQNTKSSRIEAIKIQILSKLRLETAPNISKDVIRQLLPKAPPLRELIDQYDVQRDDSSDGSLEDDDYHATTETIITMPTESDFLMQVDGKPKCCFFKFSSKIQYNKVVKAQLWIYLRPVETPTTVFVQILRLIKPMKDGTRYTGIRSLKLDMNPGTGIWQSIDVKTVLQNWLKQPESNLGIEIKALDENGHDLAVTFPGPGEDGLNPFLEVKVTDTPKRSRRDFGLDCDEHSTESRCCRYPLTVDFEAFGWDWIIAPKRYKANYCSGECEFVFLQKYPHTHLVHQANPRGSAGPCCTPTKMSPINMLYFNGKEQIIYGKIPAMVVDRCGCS

Mus musculus = assay: Effect on muscle growth in C57BL/6J mouse assessed as increase in tibialis anterior muscle weight at 20 nmol administered intramuscularly measured at day 28 relative to control; format: functional
HEK293 = assay: Inhibition of activin A (unknown origin) expressed in HEK293 cells at 0.3 to 10 uM incubated for 4 hrs by dual luciferase reporter gene assay; format: cell-based; conditions: Homo sapiens
[2] = target: Transforming growth factor beta-1 proprotein (Homo sapiens) (UniProt P01137); assay: Inhibition of TGFbeta1 (unknown origin) expressed in HEK293 cells at 0.3 to 10 uM incubated for 4 hrs by dual luciferase reporter gene assay; format: cell-based
Sequence of Transforming growth factor beta-1 proprotein (Homo sapiens) (P01137 279-390 limits assumed): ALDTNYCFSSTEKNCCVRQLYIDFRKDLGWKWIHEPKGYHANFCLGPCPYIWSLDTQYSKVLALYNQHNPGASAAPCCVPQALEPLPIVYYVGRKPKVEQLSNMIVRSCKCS

[3] = target: Growth/differentiation factor 8 (Homo sapiens) (UniProt O14793); assay: Inhibition of myostatin (unknown origin) expressed in HEK293 cells at 10 uM incubated for 4 hrs by dual luciferase reporter gene assay; format: cell-based
[4] = target: Growth/differentiation factor 8 (Homo sapiens) (UniProt O14793); assay: as §1; format: cell-based

SMILES	IC50 [1] [µM]	Activity (Mus musculus) [%]	inhibition (HEK293)	inhibition [2]	inhibition [3]	inhibition [4]
CC[C@H](C)[C@H](NC(=O)[C@H](CCC(N)=O)NC(=O)[C@@H](NC(=O)[C@H](CCCCN)NC(=O)[C@@H](NC(=O)[C@@H](Cc1c[nH]c2ccccc12)NC(=O)[C@H](CCCNC(=N)N)NC(=O)[C@@H](NC(=O)[C@H](Cc1ccc(O)cc1)NC(=O)[C@@H](N)Cc1c[nH]c2ccccc12)[C@@H](C)CC)[C@@H](C)CC)C1CCCCC1)C(=O)N[C@@H](Cc1c[nH]c2ccccc12)C(=O)N[C@@H](CO)C(=O)N[C@@H](CCCCN)C(=O)N[C@H](C(=O)N[C@@H](CCCNC(=N)N)C(=O)N[C@@H](CC(C)C)C(N)=O)C1CCCCC1 (H-WYIR[dW]IK[Chg]QIWSK[Chg]RL-NH2)	3.56					
CC[C@H](C)[C@H](NC(=O)[C@H](CCSC)NC(=O)[C@H](Cc1c[nH]c2ccccc12)NC(=O)[C@H](CCCCN)NC(=O)[C@H](Cc1ccccc1)NC(=O)[C@H](CC(C)C)NC(=O)[C@@H](NC(=O)[C@H](CC(N)=O)NC(=O)[C@H](CC(=O)O)NC(=O)[C@H](CC(N)=O)NC(=O)[C@@H](N)C(C)C)[C@@H](C)O)C(=O)N[C@@H](Cc1ccccc1)C(=O)N[C@@H](CC(N)=O)C(=O)NCC(N)=O (H-VNDNTLFKWMIFNG-NH2)	6.2	112	inactive	inactive	Active	Dose-dependent effect
